Laboratory results from ChEMBL document CHEMBL3259571, “Diacylglycerol lactones targeting the structural features that distinguish the atypical C1 domains of protein kinase C ζ and ι from typical C1 domains” (J Med Chem, 2014).

What was measured:
[1] = biological target: Protein kinase C delta type (Mus musculus, UniProt P28867); assay: Displacement of [20-3H]PDBu from GST-tagged full-length mouse PKC-delta C1B domain expressed in Escherichia coli after 2 to 30 mins by polyethylene glycol precipitation assay in presence of phosphatidylserine
[2] = Displacement of [20-3H]PDBu from GST-tagged mouse PKC-delta C1B domain N7R mutant expressed in Escherichia coli after 2 to 30 mins by polyethylene glycol precipitation assay in presence of phosphatidylserine
[3] = Displacement of [20-3H]PDBu from GST-tagged mouse PKC-delta C1B domain S10R mutant expressed in Escherichia coli after 2 to 30 mins by polyethylene glycol precipitation assay in presence of phosphatidylserine
[4] = Displacement of [20-3H]PDBu from GST-tagged mouse PKC-delta C1B domain L20R mutant expressed in Escherichia coli after 2 to 30 mins by polyethylene glycol precipitation assay in presence of phosphatidylserine
[5] = Displacement of [20-3H]PDBu from GST-tagged mouse PKC-delta C1B domain N7R/P11R mutant expressed in Escherichia coli after 2 to 30 mins by polyethylene glycol precipitation assay in presence of phosphatidylserine
[6] = Displacement of [20-3H]PDBu from GST-tagged mouse PKC-delta C1B domain N7R/L20R mutant expressed in Escherichia coli after 2 to 30 mins by polyethylene glycol precipitation assay in presence of phosphatidylserine
[7] = Displacement of [20-3H]PDBu from GST-tagged mouse PKC-delta C1B domain N7R/S10R/P11R mutant expressed in Escherichia coli after 2 to 30 mins by polyethylene glycol precipitation assay in presence of phosphatidylserine
[8] = Displacement of [20-3H]PDBu from GST-tagged mouse PKC-delta C1B domain N7R/S10R/L20R mutant expressed in Escherichia coli after 2 to 30 mins by polyethylene glycol precipitation assay in presence of phosphatidylserine
[9] = Displacement of [20-3H]PDBu from GST-tagged mouse PKC-delta C1B domain P11R mutant expressed in Escherichia coli after 2 to 30 mins by polyethylene glycol precipitation assay in presence of phosphatidylserine
[10] = organism: Mus musculus; assay: Selectivity ratio of Ki for GST-tagged mouse PKC-delta C1B domain N7R mutant to Kd for GST-tagged full-length mouse PKC-delta C1B domain
[11] = organism: Mus musculus; assay: Selectivity ratio of Ki for GST-tagged mouse PKC-delta C1B domain S10R mutant to Kd for GST-tagged full-length mouse PKC-delta C1B domain
[12] = organism: Mus musculus; assay: Selectivity ratio of Ki for GST-tagged mouse PKC-delta C1B domain P11R mutant to Kd for GST-tagged full-length mouse PKC-delta C1B domain
[13] = organism: Mus musculus; assay: Selectivity ratio of Ki for GST-tagged mouse PKC-delta C1B domain L20R mutant to Kd for GST-tagged full-length mouse PKC-delta C1B domain
[14] = organism: Mus musculus; assay: Selectivity ratio of Ki for GST-tagged mouse PKC-delta C1B domain N7R/P11R mutant to Kd for GST-tagged full-length mouse PKC-delta C1B domain
[15] = organism: Mus musculus; assay: Selectivity ratio of Ki for GST-tagged mouse PKC-delta C1B domain N7R/L20R mutant to Kd for GST-tagged full-length mouse PKC-delta C1B domain
[16] = organism: Mus musculus; assay: Selectivity ratio of Kd for GST-tagged full-length mouse PKC-delta C1B domain to Ki for GST-tagged mouse PKC-delta C1B domain P11R mutant
[17] = organism: Mus musculus; assay: Selectivity ratio of Ki for GST-tagged mouse PKC-delta C1B domain N7R/S10R/P11R mutant to Kd for GST-tagged full-length mouse PKC-delta C1B domain
[18] = organism: Mus musculus; assay: Selectivity ratio of Ki for GST-tagged mouse PKC-delta C1B domain N7R/S10R/L20R mutant to Kd for GST-tagged full-length mouse PKC-delta C1B domain

Chain of Protein kinase C delta type (P28867 whole entry, the tested form may be a part): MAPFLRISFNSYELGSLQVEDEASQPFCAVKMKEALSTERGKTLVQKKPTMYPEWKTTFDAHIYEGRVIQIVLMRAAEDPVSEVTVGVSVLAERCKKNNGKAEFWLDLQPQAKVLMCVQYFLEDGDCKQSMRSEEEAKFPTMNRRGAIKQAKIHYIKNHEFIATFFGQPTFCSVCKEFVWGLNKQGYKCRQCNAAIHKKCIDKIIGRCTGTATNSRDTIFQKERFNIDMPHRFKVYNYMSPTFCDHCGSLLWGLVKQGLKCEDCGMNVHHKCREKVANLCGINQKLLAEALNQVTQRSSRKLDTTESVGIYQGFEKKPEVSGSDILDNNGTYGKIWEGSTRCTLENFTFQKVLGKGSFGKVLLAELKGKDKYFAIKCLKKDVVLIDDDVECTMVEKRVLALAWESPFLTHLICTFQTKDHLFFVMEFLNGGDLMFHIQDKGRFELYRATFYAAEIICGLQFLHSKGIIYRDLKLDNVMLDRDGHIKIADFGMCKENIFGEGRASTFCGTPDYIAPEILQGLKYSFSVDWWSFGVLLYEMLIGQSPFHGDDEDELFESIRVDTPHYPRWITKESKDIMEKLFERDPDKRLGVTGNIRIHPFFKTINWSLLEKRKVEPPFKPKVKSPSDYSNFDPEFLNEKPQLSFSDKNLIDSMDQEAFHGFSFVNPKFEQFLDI

| Compound | Kd [1] | Ki [2] | Ki [3] | Ki [4] | Ki [5] | Ki [6] | Ki [7] | Ki [8] | Ki [9] | Selectivity ratio [10] | Selectivity ratio [11] | Selectivity ratio [12] | Selectivity ratio [13] | Selectivity ratio [14] | Selectivity ratio [15] | Selectivity ratio [16] | Selectivity ratio [17] | Selectivity ratio [18] |
| --- | --- | --- | --- | --- | --- | --- | --- | --- | --- | --- | --- | --- | --- | --- | --- | --- | --- | --- |
| CCCC(=O)O[C@@H]1[C@@H](C)[C@@]2(O)[C@@H](C=C(CO)C[C@]3(O)C(=O)C(C)=C[C@@H]23)[C@@H]2C(C)(C)[C@]12OC(=O)CCC | 0.23 nM | 1.18 nM | 0.32 nM | 8 nM | 0.0338 µM | 0.48 µM | 19.6 nM | 1360 nM |  |  |  |  |  |  |  |  |  |  |
| CC(C)(C)C(=O)OCC1(CO)C/C(=C\c2ccc(C(=O)O)cc2)C(=O)O1 (configuration not stated) | 1070 nM | 880 nM | 667 nM | 6140 nM | 3.7 µM | 83.4 µM |  |  | 998 nM | 0.82 | 0.62 | 0.93 | 5.74 | 3.49 | 78 |  |  |  |
| CC(C)CC(CC(=O)OCC1(CO)C/C(=C\c2ccc(C(=O)O)cc2)C(=O)O1)CC(C)C (configuration not stated) | 96 nM | 120 nM | 94 nM | 739 nM |  |  |  |  | 120 nM | 1.25 | 0.98 | 1.25 | 7.7 |  |  |  |  |  |
| CC(C)C(CC(=O)OCC1(CO)C/C(=C\c2ccc(O)cc2)C(=O)O1)C(C)C (configuration not stated) | 2.95 nM | 1.99 nM | 1.18 nM | 9.4 nM |  |  |  |  | 1.48 nM | 0.67 | 0.4 | 0.5 | 3.2 |  |  |  |  |  |
| CC(C)(C)C(=O)OCC1(CO)C/C(=C\c2cccc(C(=O)O)c2)C(=O)O1 (configuration not stated) | 1210 nM | 1740 nM | 1760 nM | 5500 nM | 16 µM | 105 µM |  |  | 3360 nM | 1.44 | 1.46 | 2.79 | 4.57 | 13.2 | 87 |  |  |  |
| CC(C)CC(CC(=O)OCC1(CO)C/C(=C\c2ccccc2C(C(=O)OC(C)(C)C)C(=O)OC(C)(C)C)C(=O)O1)CC(C)C (configuration not stated) | 1 nM | 0.9 nM | 1.5 nM | 17.3 nM |  |  |  |  | 1.7 nM | 0.9 | 1.5 | 1.7 | 17.3 |  |  |  |  |  |
| CC(C)CC(CC(=O)OCC1(CO)C/C(=C\c2cccc(C(C(=O)OC(C)(C)C)C(=O)OC(C)(C)C)c2)C(=O)O1)CC(C)C (configuration not stated) | 0.5 nM | 0.6 nM | 0.6 nM | 8.8 nM |  |  |  |  | 1 nM | 1.2 | 1.2 | 2 | 17.6 |  |  |  |  |  |
| CC(C)C(CC(=O)OCC1(CO)C/C(=C\c2cccc(C(=O)O)c2)C(=O)O1)C(C)C (configuration not stated) | 2100 nM | 640 nM | 840 nM | 2820 nM | 5.19 µM | 45.9 µM |  |  | 421 nM | 0.3 | 0.4 | 0.2 | 1.34 | 2.47 | 21.8 | 5 |  |  |
| CC(C)CC(CC(=O)OCC1(CO)C/C(=C\c2ccc(C(C(=O)OC(C)(C)C)C(=O)OC(C)(C)C)cc2)C(=O)O1)CC(C)C (configuration not stated) | 0.6 nM | 0.7 nM | 0.6 nM | 10.5 nM |  |  |  |  | 1.2 nM | 1.17 | 1 | 2 | 17.5 |  |  |  |  |  |
| CC(C)C(CC(=O)OCC1(CO)C/C(=C\c2cccc(O)c2)C(=O)O1)C(C)C (configuration not stated) | 2.46 nM | 2.48 nM | 2.08 nM | 19.4 nM |  |  |  |  | 2.32 nM | 1.01 | 0.85 | 0.94 | 7.87 |  |  |  |  |  |
| CC(C)C(CC(=O)OCC1(CO)C/C(=C/c2ccc(C(=O)O)cc2)C(=O)O1)C(C)C (configuration not stated) | 865 nM | 473 nM | 496 nM | 2810 nM | 2.81 µM | 51.9 µM |  |  | 940 nM | 0.55 | 0.57 | 1.09 | 3.25 | 3.25 | 60 |  |  |  |
| CC(C)C(CC(=O)OCC1(CO)C/C(=C\c2ccccc2O)C(=O)O1)C(C)C (configuration not stated) | 2.95 nM | 3.29 nM | 2.33 nM | 14 nM | 0.037 µM | 0.239 µM | 63 nM | 661 nM | 10.4 nM | 1.12 | 0.79 | 3.53 | 4.75 | 12.5 | 81 |  | 21.3 | 224 |
| CC(C)C(CC(=O)OCC1(CO)C/C(=C\c2ccc(C(=O)O)cc2)C(=O)O1)C(C)C (configuration not stated) | 560 nM | 787 nM | 813 nM | 6900 nM | 3.8 µM | 117 µM |  |  | 710 nM | 1.41 | 1.45 | 1.27 | 12.4 | 6.79 | 209 |  |  |  |
| CC(C)CC(C/C=C1\CC(CO)(COC(=O)C(C)(CO)CO)OC1=O)CC(C)C (configuration not stated) | 777 nM | 806 nM | 1120 nM | 810 nM | 23.8 µM | 7.64 µM | 47000 nM | 7830 nM | 2030 nM | 1.04 | 1.44 | 2.61 | 1.04 | 30.7 | 9.83 |  | 60.5 | 10.1 |
| CC(C)CC(CC(=O)OCC1(CO)C/C(=C\c2cccc(C(=O)O)c2)C(=O)O1)CC(C)C (configuration not stated) | 300 nM | 281 nM | 468 nM | 1600 nM |  |  |  |  | 100 nM | 0.94 | 1.56 | 0.33 | 5.33 |  |  | 3 |  |  |
